PMC3503449 (Breast cancer research and treatment, 2008)

Biological target: estrogen receptor α (ERα) (Homo sapiens, UniProt P03372)
Test: ERE-luciferase reporter, antagonism of EXE-induced ER activity
Type: cell-based

Sequence of estrogen receptor α (ERα) (P03372 whole entry): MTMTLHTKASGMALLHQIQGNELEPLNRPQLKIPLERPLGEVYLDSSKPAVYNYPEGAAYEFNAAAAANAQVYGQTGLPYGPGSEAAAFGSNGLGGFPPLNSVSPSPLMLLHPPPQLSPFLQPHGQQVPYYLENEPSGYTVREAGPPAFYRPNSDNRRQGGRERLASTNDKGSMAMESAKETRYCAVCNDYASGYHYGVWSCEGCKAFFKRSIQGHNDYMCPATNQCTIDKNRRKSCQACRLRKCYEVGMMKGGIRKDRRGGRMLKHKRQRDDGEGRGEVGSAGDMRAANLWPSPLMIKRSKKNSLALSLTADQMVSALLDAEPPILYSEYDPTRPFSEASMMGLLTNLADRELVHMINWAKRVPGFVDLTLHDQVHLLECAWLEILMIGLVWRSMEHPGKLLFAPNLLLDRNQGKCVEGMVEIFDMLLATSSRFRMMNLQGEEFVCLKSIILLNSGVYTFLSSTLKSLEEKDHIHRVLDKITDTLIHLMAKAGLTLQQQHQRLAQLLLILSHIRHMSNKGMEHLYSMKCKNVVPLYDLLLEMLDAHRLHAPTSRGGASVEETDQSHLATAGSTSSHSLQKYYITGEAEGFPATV

## C[C@]12CC[C@@H]3c4ccc(O)cc4C[C@@H](CCCCCCCCC[S+]([O-])CCCC(F)(F)C(F)(F)F)[C@H]3[C@@H]1CC[C@@H]2O (stereo partly shown) [ICI, ICI 182780]
  ERE-luciferase reporter, antagonism of EXE-induced ER activity: ER activity was inhibited using the pure ER antagonist ICI
